According to the supplement of paper PMC10307832:

compound: CCn1c(-c2nonc2N)nc2c(C#CC(C)(C)O)ncc(OC[C@H]3CCCNC3)c21 + O=C(c1cc(Cc2n[nH]c(=O)c3ccccc23)ccc1F)N1CCN(C(=O)C2CC2)CC1 [Olaparib] (partner 8 µM); experiment: relative viability (nuclei count vs DMSO), 5 days (fraction); higher = more cells survive; settings: first compound 0.1 µM
Procedure, shortened: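 Relative viability divides the nuclei count in treated wells by that in vehicle wells. Lung cancer cell lines were seeded in 1536-well plates, dosed by pin tool the next day, and fixed and stained after 5 days in one step with final 0.05% Triton X-100, 1% formaldehyde and 1 ug/ml Hoechst. Dosing was a single drug or a fixed anchor-drug dose plus five library-drug doses (not always all listed) in √10 steps, and values are medians of duplicate plates imaged at 4×.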

| Cell Line | relative viability |
| --- | --- |
| NCI-H1734 | 0.575 |
| NCI-H460 | 0.474 |
| NCI-H2347 | 0.6 |
| SK-LU-1 | 0.482 |
| NCI-H1395 | 0.472 |
| 201T | 0.838 |
| NCI-H1915 | 0.225 |
| HCC-827 | 0.661 |
| LXF-289 | 1.03 |
| NCI-H23 | 0.269 |
| NCI-H1299 | 0.936 |
| NCI-H647 | 0.486 |
| CAL-12T | 0.72 |
| NCI-H1651 | 0.197 |
| EPLC-272H | 0.641 |
| NCI-H2228 | 0.847 |
| NCI-H1792 | 0.473 |
| NCI-H1355 | 0.734 |
| NCI-H3122 | 0.632 |
| NCI-H1437 | 0.64 |
| NCI-H1755 | 0.873 |
| NCI-H2023 | 0.437 |
| HCC-15 | 0.803 |
| PC-14 | 0.34 |
| EKVX | 0.926 |

same assay, conditions: first compound 0.3162 µM

| Cell Line | relative viability |
| --- | --- |
| NCI-H522 | 0.628 |
| NCI-H727 | 0.805 |
| NCI-H1650 | 0.761 |
| EBC-1 | 0.516 |
| NCI-H1703 | 0.587 |
| NCI-H1993 | 0.943 |
| SW 1573 | 0.399 |
| NCI-H838 | 0.726 |
| LCLC-103H | 0.766 |
| NCI-H520 | 0.194 |
| NCI-H2126 | 0.893 |
| EMC-BAC-2 | 0.454 |
| NCI-H2085 | 0.755 |
| Calu-6 | 0.558 |
| HCC-366 | 0.321 |
| NCI-H1666 | 0.769 |
| NCI-H596 | 0.697 |
| LK-2 | 0.865 |
| NCI-H2087 | 0.569 |
| NCI-H2342 | 0.482 |
| SK-MES-1 | 0.649 |
| H3255 | 0.483 |
| COR-L23 | 0.379 |
| COR-L 105 | 0.696 |

| Cell Line | relative viability |
| --- | --- |
| IA-LM | 1.3 |
| LOU-NH91 | 0.797 |
| ChaGo-K-1 | 0.408 |
| NCI-H2170 | 0.559 |
| NCI-H2405 | 0.8 |
| HOP-62 | 0.521 |
| HCC-44 | 0.955 |
| A549 | 0.301 |
| SW 900 | 0.88 |
| LU99A | 0.258 |
| BEN | 0.919 |
| HARA | 0.687 |
| NCI-H1648 | 0.604 |
| HCC-78 | 0.794 |
| NCI-H322M | 0.749 |
| LCLC-97TM1 | 0.391 |
| NCI-H2009 | 0.685 |
| A-427 | 0.683 |
| NCI-H441 | 0.551 |
| NCI-H661 | 0.771 |
| NCI-H1734 | 0.555 |
| NCI-H460 | 0.403 |
| NCI-H2347 | 0.608 |
| SK-LU-1 | 0.43 |

| Cell Line | relative viability |
| --- | --- |
| NCI-H1395 | 0.433 |
| 201T | 0.801 |
| NCI-H1915 | 0.249 |
| HCC-827 | 0.622 |
| LXF-289 | 0.973 |
| NCI-H23 | 0.309 |
| NCI-H1299 | 0.995 |
| NCI-H647 | 0.561 |
| CAL-12T | 0.699 |
| NCI-H1651 | 0.185 |
| EPLC-272H | 0.56 |
| NCI-H2228 | 0.541 |
| NCI-H1792 | 0.374 |
| NCI-H1355 | 0.709 |
| NCI-H3122 | 0.559 |
| NCI-H1437 | 0.605 |
| NCI-H1755 | 0.847 |
| NCI-H2023 | 0.381 |
| HCC-15 | 0.672 |
| NCI-H1793 | 0.742 |
| PC-14 | 0.378 |
| EKVX | 0.768 |

same assay, conditions: first compound 1 µM

| Cell Line | relative viability |
| --- | --- |
| NCI-H522 | 0.581 |
| NCI-H727 | 0.869 |
| NCI-H1650 | 0.738 |
| EBC-1 | 0.557 |
| NCI-H1703 | 0.31 |
| NCI-H1993 | 0.985 |
| SW 1573 | 0.364 |
| NCI-H838 | 0.76 |
| LCLC-103H | 0.795 |
| NCI-H520 | 0.169 |
| NCI-H2126 | 0.95 |
| EMC-BAC-2 | 0.468 |
| NCI-H2085 | 0.725 |
| Calu-6 | 0.644 |
| HCC-366 | 0.354 |
| NCI-H1666 | 0.778 |
| NCI-H596 | 0.871 |
| LK-2 | 0.72 |
| NCI-H2087 | 0.543 |
| NCI-H2342 | 0.44 |
| SK-MES-1 | 0.702 |
| H3255 | 0.564 |
| COR-L23 | 0.376 |
| COR-L 105 | 1.19 |

| Cell Line | relative viability |
| --- | --- |
| IA-LM | 0.786 |
| LOU-NH91 | 0.856 |
| ChaGo-K-1 | 0.398 |
| NCI-H2170 | 0.586 |
| NCI-H2405 | 0.915 |
| HOP-62 | 0.603 |
| HCC-44 | 0.994 |
| A549 | 0.257 |
| SW 900 | 0.864 |
| LU99A | 0.288 |
| BEN | 0.966 |
| HARA | 0.763 |
| NCI-H1648 | 0.567 |
| HCC-78 | 0.564 |
| NCI-H322M | 0.831 |
| LCLC-97TM1 | 0.321 |
| NCI-H2009 | 0.75 |
| A-427 | 0.709 |
| NCI-H441 | 0.567 |
| NCI-H661 | 0.758 |
| NCI-H1734 | 0.618 |
| NCI-H460 | 0.495 |
| NCI-H2347 | 0.549 |
| SK-LU-1 | 0.461 |

| Cell Line | relative viability |
| --- | --- |
| NCI-H1395 | 0.372 |
| 201T | 0.827 |
| NCI-H1915 | 0.255 |
| HCC-827 | 0.683 |
| LXF-289 | 1.05 |
| NCI-H23 | 0.313 |
| NCI-H1299 | 0.984 |
| NCI-H647 | 0.517 |
| CAL-12T | 0.729 |
| NCI-H1651 | 0.215 |
| EPLC-272H | 0.507 |
| NCI-H2228 | 0.55 |
| NCI-H1792 | 0.589 |
| NCI-H1355 | 0.735 |
| NCI-H3122 | 0.609 |
| NCI-H1437 | 0.625 |
| NCI-H1755 | 0.917 |
| NCI-H2023 | 0.475 |
| HCC-15 | 0.628 |
| NCI-H1793 | 0.933 |
| PC-14 | 0.412 |
| EKVX | 0.757 |
